Data taken from ChEMBL document CHEMBL2384992, “Conformation constraint of anilides enabling the discovery of tricyclic lactams as potent MK2 non-ATP competitive inhibitors” (Bioorg Med Chem Lett, 2013).

Experiments:
[1] = Toxicity in human SW1353 cells; type: cell-based
[2] = molecular target: Receptor-type tyrosine-protein kinase FLT3 (Homo sapiens, UniProt P36888); experiment: Inhibition of FLT3 (unknown origin)
[3] = molecular target: Calcium/calmodulin-dependent protein kinase type IV (Homo sapiens, UniProt Q16566); experiment: Inhibition of CAMK4 (unknown origin)
[4] = molecular target: Casein kinase I isoform delta (Homo sapiens, UniProt P48730); experiment: Inhibition of CSNK1D (unknown origin)
[5] = molecular target: Serine/threonine-protein kinase 3 (Homo sapiens, UniProt Q13188); experiment: Inhibition of MST2 (unknown origin)
[6] = molecular target: Hepatocyte growth factor receptor (Homo sapiens, UniProt P08581); experiment: Inhibition of MET (unknown origin)
[7] = molecular target: RAC-alpha serine/threonine-protein kinase (Homo sapiens, UniProt P31749); experiment: Inhibition of AKT1 (unknown origin)
[8] = molecular target: Interleukin-1 receptor-associated kinase 4 (Homo sapiens, UniProt Q9NWZ3); experiment: Inhibition of IRAK4 (unknown origin)
[9] = molecular target: Tyrosine-protein kinase Lck (Homo sapiens, UniProt P06239); experiment: Inhibition of LCK (unknown origin)
[10] = molecular target: MAP kinase-activated protein kinase 2 (Homo sapiens, UniProt P49137)
Description: Inhibition of MK2 (unknown origin) phosphorylation using TAMRA labeled peptide as substrate incubated 30 mins before substrate addition measured after 30 mins

[11] = molecular target: Ephrin type-B receptor 4 (Homo sapiens, UniProt P54760); experiment: Inhibition of EPHB4 (unknown origin)
[12] = molecular target: Tyrosine-protein kinase JAK2 (Homo sapiens, UniProt O60674); experiment: Inhibition of JAK2 (unknown origin)
[13] = molecular target: Serine/threonine-protein kinase PLK3 (Homo sapiens, UniProt Q9H4B4); experiment: Inhibition of PLK3 (unknown origin)
[14] = molecular target: Testis-specific serine/threonine-protein kinase 2 (Homo sapiens, UniProt Q96PF2); experiment: Inhibition of TSSK2 (unknown origin)
[15] = molecular target: Glycogen synthase kinase-3 beta (Homo sapiens, UniProt P49841); experiment: Inhibition of GSK3B (unknown origin)
[16] = molecular target: Inhibitor of nuclear factor kappa-B kinase subunit beta (Homo sapiens, UniProt O14920); experiment: Inhibition of IKKB (unknown origin)
[17] = molecular target: Epidermal growth factor receptor (Homo sapiens, UniProt P00533); experiment: Inhibition of EGFR (unknown origin)
[18] = molecular target: Mitogen-activated protein kinase 1 (Homo sapiens, UniProt P28482); experiment: Inhibition of ERK2 (unknown origin)
[19] = molecular target: Protein kinase C alpha type (Homo sapiens, UniProt P17252); experiment: Inhibition of PKCA (unknown origin)
[20] = molecular target: Insulin-like growth factor 1 receptor (Homo sapiens, UniProt P08069); experiment: Inhibition of IGF1R (unknown origin)
[21] = molecular target: Rho-associated protein kinase 2 (Homo sapiens, UniProt O75116); experiment: Inhibition of ROCK2 (unknown origin)
[22] = molecular target: Serine/threonine-protein kinase Chk1 (Homo sapiens, UniProt O14757); experiment: Inhibition of CHK1 (unknown origin)
[23] = molecular target: Serine/threonine-protein kinase Nek2 (Homo sapiens, UniProt P51955); experiment: Inhibition of NEK2 (unknown origin)
[24] = system: THP-1; experiment: cells; settings: Homo sapiens
Description: Antiinflammatory activity in human THP1 cells assessed as inhibition of LPS-induced TNFalpha production treated 30 mins before LPS addition measured after 3 hrs by ELISA

`O=C1c2oc(-c3ccc(Cl)cc3)cc2Cc2cc(N3CCNCC3)ccc2N1Cc1ccccn1` gave a CC50 [1] of 17.4 µM.

Work on `O=C1c2oc(-c3ccc(Cl)cc3)cc2Cc2cc(N3CCNCC3)ccc2N1Cc1ccccc1-c1cccnc1` yielded an IC50 [2] of over 30 µM, an IC50 [3] of 27 µM and an IC50 [4] of over 30 µM. The IC50 [5] was over 12 µM, the IC50 [6] was over 30 µM and the IC50 [7] was 16 µM. The IC50 [8] was 26 µM, the IC50 [9] was over 19 µM and the IC50 [10] was 22 nM. The IC50 [11] was over 30 µM, the IC50 [12] was 11 µM and the IC50 [13] was over 30 µM. The IC50 [14] was over 30 µM, the IC50 [15] was over 30 µM and the IC50 [16] was 24 µM. For the same compound, the IC50 [17] was over 30 µM, the IC50 [18] was over 30 µM and the IC50 [19] was 10 µM. It also gave an IC50 [20] of over 30 µM, an IC50 [21] of over 20 µM and an IC50 [22] of over 18 µM. For the same compound, the IC50 [23] was 13 µM.

`N#Cc1ccc(-c2cc3c(o2)C(=O)N(Cc2ccccc2-c2cncnc2)c2ccc(N4CCNCC4)cc2C3)cc1` showed an EC50 [24] of 150 nM.
